Measured values taken from patent US6737383B1, “Herbicidal oxadiazolidines” (priority 1999, dated 2004).

Key:
bedstraw = assay: Test B pre/postemergence bedstraw; type: in vivo, Galium aparine
In short: (§1)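 Response is a visual 0-to-10 score relative to untreated plants, where 0 means no effect and 10 means complete control, taken twelve to sixteen days after application. Treatments went onto soil at planting and onto foliage of 1- to 4-leaf plants, using a surfactant-containing non-phytotoxic solvent.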

blackgrass = assay: Test B pre/postemergence blackgrass; type: in vivo, Alopecurus myosuroides
In short: as §1

surinam grass = assay: Test B pre/postemergence surinam grass; type: in vivo, Brachiaria decumbens
In short: as §1

cocklebur = assay: Test B pre/postemergence cocklebur; type: in vivo, Xanthium strumarium
In short: as §1

corn = assay: Test B pre/postemergence corn; type: in vivo, Zea mays
In short: as §1

giant foxtail = assay: Test B pre/postemergence giant foxtail; type: in vivo, Setaria faberii
In short: as §1

morningglory = assay: Test B pre/postemergence morningglory; type: in vivo, Ipomoea hederacea
In short: as §1

pigweed = assay: Test B pre/postemergence pigweed; type: in vivo, Amaranthus retroflexus
In short: as §1

rape = assay: Test B pre/postemergence rape; type: in vivo, Brassica napus
In short: as §1

soybean = assay: Test B pre/postemergence soybean; type: in vivo, Glycine max
In short: as §1

sugar beet = assay: Test B pre/postemergence sugar beet; type: in vivo, Beta vulgaris
In short: as §1

velvetleaf = assay: Test B pre/postemergence velvetleaf; type: in vivo, Abutilon theophrasti
In short: as §1

purple nutsedge = assay: Test B pre/postemergence purple nutsedge; type: in vivo, Cyperus rotundus
In short: as §1

smallflower flatsedge = assay: Test B flood test smallflower flatsedge; type: in vivo, Cyperus difformis
In short: (§2)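 Each value is a visual injury score relative to controls, with 10 meaning complete control and 0 no effect. Evaluation took place twelve to sixteen days after the 2-leaf-stage plants were treated and kept in the greenhouse.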

duck salad = assay: Test B flood test duck salad; type: in vivo, Heteranthera limosa
In short: as §2

bamyardgrass = assay: Test B flood test barnyardgrass; type: in vivo, Echinochloa crus-galli
In short: as §2

[1] = Preemergence, Rate 62 g/ha, scale of 0 to 10 where 0 is no effect and 10 is complete control
[2] = Preemergence, Rate 250 g/ha, scale of 0 to 10 where 0 is no effect and 10 is complete control
[3] = Preemergence, Rate 500 g/ha, scale of 0 to 10 where 0 is no effect and 10 is complete control
[4] = Rate 62 g/ha, Postemergence, scale of 0 to 10 where 0 is no effect and 10 is complete control
[5] = Rate 125 g/ha, Postemergence, scale 0 to 10
[6] = Rate 125 g/ha, Preemergence, scale of 0 to 10 where 0 is no effect and 10 is complete control
[7] = Rate 500 g/ha, Postemergence, scale 0 to 10, 0 no effect, 10 complete control
[8] = Preemergence, Rate 31 g/ha, visual rating, scale 0 to 10 (0 no effect, 10 complete control)
[9] = Rate 31 g/ha, Postemergence, scale 0 to 10
[10] = Rate 62 g/ha, headed Pre-emergence (flood test species), scale 0 to 10 (0 no effect, 10 complete control)
[11] = Rate 125 g/ha, Pre-emergence, flood test species, scale 0 to 10 where 0 is no effect and 10 is complete control
[12] = Rate 250 g/ha, Pre-emergence, flood-test species, scale 0 to 10, 0 is no effect, 10 is complete control
[13] = Rate 500 g/ha, Pre-emergence, flood test species, scale 0 to 10 (0 no effect, 10 complete control)

CC(C)N(C(=O)n1oc(=O)n(N(C)C)c1=O)c1ccccc1 [Compound 225]
Bedstraw plant response rating (bedstraw; [1]): 0 | Bedstraw plant response rating (bedstraw; [2]): 0 | Plant response rating, Bedstraw (bedstraw; [3]): 2 | Bedstraw plant response rating (bedstraw; [4]): 0 | Bedstraw plant response rating (bedstraw; [5]): 0 | Bedstraw plant response rating (bedstraw; [6]): 0 | Plant response rating (0 to 10; 0 is no effect, 10 is complete control), Bedstraw (bedstraw; Rate 250 g/ha, Postemergence): 0 | Bedstraw plant response rating (bedstraw; [7]): 0 | Blackgrass plant response rating (blackgrass; [8]): 0 | Blackgrass plant response rating (blackgrass; [1]): 2 | Blackgrass plant response rating (blackgrass; [2]): 10 | Plant response rating, Blackgrass (blackgrass; [3]): 10 | Blackgrass plant response rating (blackgrass; [9]): 0 | Blackgrass plant response rating (blackgrass; [4]): 6 | Blackgrass plant response rating (blackgrass; [5]): 9 | Blackgrass plant response rating (blackgrass; [6]): 10 | Plant response rating (0 to 10; 0 is no effect, 10 is complete control), Blackgrass (blackgrass; Rate 250 g/ha, Postemergence): 9 | Blackgrass plant response rating (blackgrass; [7]): 8 | B. signalgrass plant response rating (surinam grass; [8]): 0 | B. signalgrass plant response rating (surinam grass; [1]): 1 | B. signalgrass plant response rating (surinam grass; Preemergence, Rate 250 g/ha, scale 0 to 10, 0 is no effect, 10 is complete control): 7 | Plant response rating, B. signalgrass (surinam grass; [3]): 7 | B. signalgrass plant response rating (surinam grass; [9]): 0 | B. signalgrass plant response rating (surinam grass; [4]): 2 | B. signalgrass plant response rating (surinam grass; Rate 125 g/ha, Postemergence, scale 0 (no effect) to 10 (complete control)): 5 | B. signalgrass plant response rating (surinam grass; [6]): 7 | Plant response rating (0 to 10; 0 is no effect, 10 is complete control), B. signalgrass (surinam grass; Rate 250 g/ha, Postemergence): 5 | B. signalgrass plant response rating (surinam grass; [7]): 9 | Cocklebur plant response rating (cocklebur; [8]): 0 | Cocklebur plant response rating (cocklebur; [1]): 0 | Cocklebur plant response rating (cocklebur; [2]): 2 | Plant response rating, Cocklebur (cocklebur; [3]): 2 | Cocklebur plant response rating (cocklebur; [9]): 0 | Cocklebur plant response rating (cocklebur; [4]): 0 | Cocklebur plant response rating (cocklebur; [5]): 0 | Cocklebur plant response rating (cocklebur; [6]): 2 | Plant response rating (0 to 10; 0 is no effect, 10 is complete control), Cocklebur (cocklebur; Rate 250 g/ha, Postemergence): 0 | Cocklebur plant response rating (cocklebur; [7]): 0 | Corn plant response rating (corn; [8]): 0 | Corn plant response rating (corn; [1]): 0 | Corn plant response rating (corn; [2]): 4 | Plant response rating, Corn (corn; [3]): 6 | Corn plant response rating (corn; [9]): 0 | Corn plant response rating (corn; [4]): 0 | Corn plant response rating (corn; [5]): 2 | Corn plant response rating (corn; [6]): 3 | Plant response rating (0 to 10; 0 is no effect, 10 is complete control), Corn (corn; Rate 250 g/ha, Postemergence): 2 | Corn plant response rating (corn; [7]): 6 | Giant foxtail plant response rating (giant foxtail; [8]): 8 | Giant foxtail plant response rating (giant foxtail; [1]): 8 | Giant foxtail plant response rating (giant foxtail; [2]): 10 | Plant response rating, Giant foxtail (giant foxtail; [3]): 10 | Giant foxtail plant response rating (giant foxtail; [9]): 0 | Giant foxtail plant response rating (giant foxtail; [4]): 8 | Giant foxtail plant response rating (giant foxtail; [5]): 8 | Giant foxtail plant response rating (giant foxtail; [6]): 10 | Plant response rating (0 to 10; 0 is no effect, 10 is complete control), Giant foxtail (giant foxtail; Rate 250 g/ha, Postemergence): 8 | Giant foxtail plant response rating (giant foxtail; [7]): 9 | Morningglory plant response rating (morningglory; [8]): 0 | Morningglory plant response rating (morningglory; [1]): 0 | Morningglory plant response rating (morningglory; [2]): 4 | Plant response rating, Morningglory (morningglory; [3]): 8 | Morningglory plant response rating (morningglory; [9]): 2 | Morningglory plant response rating (morningglory; [4]): 2 | Morningglory plant response rating (morningglory; [5]): 3 | Morningglory plant response rating (morningglory; [6]): 4 | Plant response rating (0 to 10; 0 is no effect, 10 is complete control), Morningglory (morningglory; Rate 250 g/ha, Postemergence): 6 | Morningglory plant response rating (morningglory; [7]): 6 | Redroot pigweed plant response rating (pigweed; [8]): 6 | Redroot pigweed plant response rating (pigweed; [1]): 6 | Redroot pigweed plant response rating (pigweed; [2]): 10 | Plant response rating, Redroot pigweed (pigweed; [3]): 10 | Redroot pigweed plant response rating (pigweed; [9]): 0 | Redroot pigweed plant response rating (pigweed; [4]): 0 | Redroot pigweed plant response rating (pigweed; [5]): 0 | Redroot pigweed plant response rating (pigweed; [6]): 7 | Plant response rating (0 to 10; 0 is no effect, 10 is complete control), Redroot pigweed (pigweed; Rate 250 g/ha, Postemergence): 0 | Redroot pigweed plant response rating (pigweed; [7]): 2 | Rape plant response rating (rape; [8]): 0 | Rape plant response rating (rape; [1]): 0 | Rape plant response rating (rape; [2]): 0 | Plant response rating, Rape (rape; [3]): 6 | Rape plant response rating (rape; [9]): 0 | Rape plant response rating (rape; [4]): 0 | Rape plant response rating (rape; [5]): 0 | Rape plant response rating (rape; [6]): 0 | Plant response rating (0 to 10; 0 is no effect, 10 is complete control), Rape (rape; Rate 250 g/ha, Postemergence): 0 | Rape plant response rating (rape; [7]): 2 | Soybean plant response rating (soybean; [8]): 0 | Soybean plant response rating (soybean; [1]): 0 | Soybean plant response rating (soybean; [2]): 3 | Plant response rating, Soybean (soybean; [3]): 6 | Soybean plant response rating (soybean; [4]): 2 | Soybean plant response rating (soybean; [5]): 3 | Soybean plant response rating (soybean; [6]): 2 | Plant response rating (0 to 10; 0 is no effect, 10 is complete control), Soybean (soybean; Rate 250 g/ha, Postemergence): 5 | Soybean plant response rating (soybean; [7]): 4 | Sugarbeets plant response rating (sugar beet; [8]): 0 | Sugarbeets plant response rating (sugar beet; [1]): 0 | Sugarbeets plant response rating (sugar beet; [2]): 5 | Plant response rating, Sugarbeets (sugar beet; [3]): 6 | Sugarbeets plant response rating (sugar beet; [4]): 0 | Sugarbeets plant response rating (sugar beet; [5]): 0 | Sugarbeets plant response rating (sugar beet; [6]): 2 | Plant response rating (0 to 10; 0 is no effect, 10 is complete control), Sugarbeets (sugar beet; Rate 250 g/ha, Postemergence): 3 | Sugarbeets plant response rating (sugar beet; [7]): 2 | Velvetleaf plant response rating (velvetleaf; [8]): 0 | Velvetleaf plant response rating (velvetleaf; [1]): 4 | Velvetleaf plant response rating (velvetleaf; [2]): 6 | Plant response rating, Velvetleaf (velvetleaf; [3]): 7 | Velvetleaf plant response rating (velvetleaf; [4]): 0 | Velvetleaf plant response rating (velvetleaf; [5]): 0 | Velvetleaf plant response rating (velvetleaf; [6]): 5 | Plant response rating (0 to 10; 0 is no effect, 10 is complete control), Velvetleaf (velvetleaf; Rate 250 g/ha, Postemergence): 0 | Velvetleaf plant response rating (velvetleaf; [7]): 3 | Nutsedge plant response rating (purple nutsedge; [8]): 0 | Nutsedge plant response rating (purple nutsedge; [1]): 7 | Nutsedge plant response rating (purple nutsedge; [2]): 8 | Plant response rating, Nutsedge (purple nutsedge; [3]): 10 | Nutsedge plant response rating (purple nutsedge; [9]): 0 | Nutsedge plant response rating (purple nutsedge; [4]): 0 | Nutsedge plant response rating (purple nutsedge; [5]): 0 | Nutsedge plant response rating (purple nutsedge; [6]): 7 | Plant response rating (0 to 10; 0 is no effect, 10 is complete control), Nutsedge (purple nutsedge; Rate 250 g/ha, Postemergence): 0 | Nutsedge plant response rating (purple nutsedge; [7]): 2 | S. Flatsedge plant response rating (smallflower flatsedge; [10]): 0 | S. Flatsedge plant response rating (smallflower flatsedge; [11]): 0 | S. Flatsedge plant response rating (smallflower flatsedge; [12]): 0 | S. Flatsedge plant response rating (smallflower flatsedge; [13]): 0 | Ducksalad plant response rating (duck salad; [10]): 0 | Ducksalad plant response rating (duck salad; [11]): 0 | Ducksalad plant response rating (duck salad; [12]): 0 | Ducksalad plant response rating (duck salad; [13]): 0 | Barnyardgrass plant response rating (bamyardgrass; [10]): 0 | Barnyardgrass plant response rating (bamyardgrass; [11]): 0 | Barnyardgrass plant response rating (bamyardgrass; [12]): 0 | Barnyardgrass plant response rating (bamyardgrass; [13]): 0
